Data reported in patent publication US9718785B2, “1,3-Disubstituted cyclopentane derivatives” (MERCK PATENT GMBH, priority 2013, dated 2017).

Biological target: T1, human recombinant full-length fatty acid synthase (FASN) (Homo sapiens, UniProt P49327)
T1 construct: 40 nM human recombinant full-length fatty acid synthase (produced in-house in SF9 cells); made in house; host or cells: SF9 insect cells
Assay: Biochemical activity testing of human fatty acid synthase FASN (NADPH fluorescence intensity enzyme assay)
Details: human recombinant FASN, enzyme assay
Summary of the method: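 Recombinant full-length human FASN from SF9 cells, preincubated with compound (10 concentrations, top 30 μM final, 1% DMSO) and NADPH ≥15 min at room temperature, pH 7.0. Acetyl-CoA and malonyl-CoA added; NADPH fluorescence (340/460 nm) read before and after 30 min. IC50 from signal difference, normalised to uninhibited reaction and GSK837149A zero control.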

T1 sequence (P49327 whole entry): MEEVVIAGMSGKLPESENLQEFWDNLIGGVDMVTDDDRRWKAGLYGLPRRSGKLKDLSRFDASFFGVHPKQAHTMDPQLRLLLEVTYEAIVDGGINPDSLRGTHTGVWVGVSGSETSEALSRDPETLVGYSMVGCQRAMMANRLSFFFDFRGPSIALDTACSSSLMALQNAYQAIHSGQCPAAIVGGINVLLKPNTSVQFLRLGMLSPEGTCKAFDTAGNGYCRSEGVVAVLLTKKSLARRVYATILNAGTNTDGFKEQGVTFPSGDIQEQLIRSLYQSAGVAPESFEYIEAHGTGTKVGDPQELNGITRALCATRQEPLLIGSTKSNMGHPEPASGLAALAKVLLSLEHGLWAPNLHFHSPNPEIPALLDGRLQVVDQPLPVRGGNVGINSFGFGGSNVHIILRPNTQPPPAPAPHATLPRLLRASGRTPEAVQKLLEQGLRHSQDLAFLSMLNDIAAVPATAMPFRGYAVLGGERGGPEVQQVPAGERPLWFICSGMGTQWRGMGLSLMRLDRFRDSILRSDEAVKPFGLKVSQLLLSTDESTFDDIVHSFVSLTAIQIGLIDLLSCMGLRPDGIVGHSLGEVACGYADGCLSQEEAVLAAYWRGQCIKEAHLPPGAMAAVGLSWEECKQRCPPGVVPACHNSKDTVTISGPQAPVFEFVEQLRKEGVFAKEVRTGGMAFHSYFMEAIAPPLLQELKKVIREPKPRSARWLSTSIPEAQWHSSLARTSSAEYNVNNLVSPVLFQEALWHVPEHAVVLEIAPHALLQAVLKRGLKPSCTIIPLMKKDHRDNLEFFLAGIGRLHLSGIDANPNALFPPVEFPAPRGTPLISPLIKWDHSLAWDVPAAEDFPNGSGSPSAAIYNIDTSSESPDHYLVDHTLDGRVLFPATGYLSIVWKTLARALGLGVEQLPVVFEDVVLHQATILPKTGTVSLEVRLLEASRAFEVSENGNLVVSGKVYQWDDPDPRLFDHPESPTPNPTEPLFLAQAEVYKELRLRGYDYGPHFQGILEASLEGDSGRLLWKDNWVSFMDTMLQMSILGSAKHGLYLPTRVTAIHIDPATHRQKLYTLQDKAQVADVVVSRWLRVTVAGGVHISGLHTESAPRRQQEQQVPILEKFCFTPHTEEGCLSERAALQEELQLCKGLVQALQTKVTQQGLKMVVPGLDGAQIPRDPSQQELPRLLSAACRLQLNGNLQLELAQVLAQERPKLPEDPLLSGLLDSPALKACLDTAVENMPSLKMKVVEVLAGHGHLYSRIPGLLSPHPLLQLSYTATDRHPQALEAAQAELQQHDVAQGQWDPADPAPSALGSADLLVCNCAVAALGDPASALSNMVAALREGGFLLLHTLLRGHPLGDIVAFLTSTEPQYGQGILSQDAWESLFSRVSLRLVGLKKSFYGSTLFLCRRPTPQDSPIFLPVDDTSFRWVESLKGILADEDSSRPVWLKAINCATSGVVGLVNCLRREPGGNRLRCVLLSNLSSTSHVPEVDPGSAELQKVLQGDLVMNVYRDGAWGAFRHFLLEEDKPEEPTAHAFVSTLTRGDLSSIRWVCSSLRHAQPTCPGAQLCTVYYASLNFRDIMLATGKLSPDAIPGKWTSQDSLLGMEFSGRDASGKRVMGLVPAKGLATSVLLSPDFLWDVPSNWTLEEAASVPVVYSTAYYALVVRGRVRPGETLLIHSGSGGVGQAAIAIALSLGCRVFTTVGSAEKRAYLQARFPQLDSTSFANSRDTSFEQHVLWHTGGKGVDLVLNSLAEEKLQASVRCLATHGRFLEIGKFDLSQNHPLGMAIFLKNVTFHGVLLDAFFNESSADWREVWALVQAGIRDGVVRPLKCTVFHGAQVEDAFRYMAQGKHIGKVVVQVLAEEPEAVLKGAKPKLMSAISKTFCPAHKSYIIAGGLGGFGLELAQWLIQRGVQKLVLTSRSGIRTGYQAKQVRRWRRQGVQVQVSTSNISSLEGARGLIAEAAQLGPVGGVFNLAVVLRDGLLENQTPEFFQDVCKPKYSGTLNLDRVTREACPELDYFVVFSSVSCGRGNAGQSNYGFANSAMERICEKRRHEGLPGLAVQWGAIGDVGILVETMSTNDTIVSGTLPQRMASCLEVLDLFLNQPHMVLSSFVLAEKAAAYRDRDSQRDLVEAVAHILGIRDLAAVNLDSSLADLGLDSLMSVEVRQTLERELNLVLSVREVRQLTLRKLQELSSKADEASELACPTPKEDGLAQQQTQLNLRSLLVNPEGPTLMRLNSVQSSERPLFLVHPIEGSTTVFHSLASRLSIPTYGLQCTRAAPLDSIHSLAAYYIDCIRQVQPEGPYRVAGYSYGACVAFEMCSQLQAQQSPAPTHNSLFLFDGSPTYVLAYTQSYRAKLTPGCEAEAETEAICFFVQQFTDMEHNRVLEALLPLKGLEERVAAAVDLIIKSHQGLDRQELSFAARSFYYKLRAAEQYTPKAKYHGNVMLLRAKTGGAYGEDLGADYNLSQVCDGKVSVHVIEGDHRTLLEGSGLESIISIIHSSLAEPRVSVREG

SMILES	IC50 [nM]
CCC(=O)N[C@H]1CC[C@@H](n2nncc2-c2ccc(-c3ccc(F)c(Cl)c3)cc2)C1 [Compound A85, N-{(1S,3R)-3-[5-(3′-Chloro-4′-fluoro-biphenyl-4-yl)-[1,2,3]triazol-1-yl]-cyclopentyl}-propionamide]	< 300
CCC(=O)N[C@H]1CC[C@@H](n2nncc2-c2ccc(-c3ccc4[nH]c(=O)[nH]c4c3)cc2)C1 [Compound A87, N-((1S,3R)-3-{5-[4-(2-Oxo-2,3-dihydro-1H-benzimidazol-5-yl)-phenyl]-[1,2,3]triazol-1-yl}-cyclopentyl)-propionamide]	< 300
CCC(=O)N[C@H]1CC[C@@H](n2nncc2-c2ccc(-c3ccc(OC)c(OC)c3)cc2)C1 [Compound A88, N-{(1S,3R)-3-[5-(3′,4′-Dimethoxy-biphenyl-4-yl)-[1,2,3]triazol-1-yl]-cyclopentyl}-propionamide]	< 300
CCC(=O)N[C@H]1CC[C@@H](n2nncc2-c2ccc(-c3ccc(C)cc3C)cc2)C1 [Compound A89, N-{(1S,3R)-3-[5-(2′,4′-Dimethyl-biphenyl-4-yl)-[1,2,3]triazol-1-yl]-cyclopentyl}-propionamide]	< 300
CCC(=O)N[C@H]1CC[C@@H](n2nncc2-c2ccc(-c3ccc4c(c3)NC(=O)C4)cc2)C1 [Compound A91, N-((1S,3R)-3-{5-[4-(2-Oxo-2,3-dihydro-1H-indol-6-yl)-phenyl]-[1,2,3]triazol-1-yl}-cyclopentyl)-propionamide]	< 300
O=C(N[C@H]1CC[C@@H](n2nncc2-c2ccc(-c3nc4ccccc4o3)cc2)C1)[C@@H](O)CO [Compound A93, (S)—N-{(1S,3R)-3-[5-(4-Benzoxazol-2-yl-phenyl)-[1,2,3]triazol-1-yl]-cyclopentyl}-2,3-dihydroxy-propionamide]	300 to 3000
CCC(=O)N[C@H]1CC[C@@H](n2cnnc2-c2ccc(-c3ccc(Cl)c(F)c3)cc2)C1 [Compound A95, N-{(1S,3R)-3-[3-(4′-Chloro-3′-fluoro-biphenyl-4-yl)[1,2,4]triazol-4-yl]-cyclopentyl}-propionamide]	< 300
CCC(=O)N[C@H]1CC[C@@H](n2cnnc2-c2ccc(-c3ccc(-n4cccn4)cc3)cc2)C1 [Compound A96, N-{(1S,3R)-3-[3-(4′-Pyrazol-1-yl-biphenyl-4-yl)[1,2,4]triazol-4-yl]-cyclopentyl}-propionamide]	< 300
CCC(=O)N[C@H]1CC[C@@H](n2cnnc2-c2ccc(-c3ccc4c(ccn4C)c3)cc2)C1 [Compound A97, N-((1S,3R)-3-{3-[4-(1-Methyl-1H-indol-5-yl)-phenyl]-[1,2,4]triazol-4-yl}-cyclopentyl)-propionamide]	< 300

Results, then the compound that gave them:

IC50 [nM]	SMILES
< 300	CCC(=O)N[C@H]1CC[C@@H](n2nncc2-c2ccc(-c3ccc(OC)cc3OC)cc2)C1 [Compound A86, N-{(1S,3R)-3-[5-(2′,4′-Dimethoxy-biphenyl-4-yl)-[1,2,3]triazol-1-yl]-cyclopentyl}-propionamide]
< 300	CC1(C)OC[C@@H](C(=O)N[C@H]2CC[C@@H](n3nncc3-c3ccc(-c4nc5ccccc5o4)cc3)C2)O1 [Compound A90, (S)-2,2-Dimethyl-[1,3]dioxolane-4-carboxylic acid {(1S,3R)-3-[5-(4-benzoxazol-2-yl-phenyl)-[1,2,3]triazol-1-yl]-cyclopentyl}-amide]
< 300	CCC(=O)N[C@H]1CC[C@@H](n2nncc2-c2ccc(-c3ccc(OCC4CC4)cc3)cc2)C1 [Compound A92, N-{(1S,3R)-3-[5-(4′-Cyclopropylmethoxy-biphenyl-4-yl)-[1,2,3]triazol-1-yl]-cyclopentyl}-propionamide]
< 300	CCC(=O)N[C@H]1CC[C@@H](n2cnnc2-c2ccc(-c3ccc(OC)cc3C)cc2)C1 [Compound A94, N-{(1S,3R)-3-[3-(4′-Methoxy-2′-methyl-biphenyl-4-yl)-[1,2,4]triazol-4-yl]-cyclopentyl}-propionamide]
